This note sets out measurements from PMC6799938, “Determinants of drug entry into the developing brain” (F1000Research, 2019).

Where two headings read alike, the source gives them in different places.

For series [1] the following is noted: for Brain radioactivity level / CSF radioactivity level / Plasma radioactivity level: mean. Here is the method: Animals. Sprague Dawley rats were supplied by the University of Melbourne Biological Research Facility and housed in groups of 2–4 (adult) or full litters per cage (25cm x 35cm x 25cm on Breeders Choice paper bedding, made from 99% recycled paper; it is biodegradable with no added chemicals), on a 12 h light/dark cycle with ad libitum access to food (dry pellets of a fixed formulation diet for laboratory rats and mice fortified with vitamins and minerals to meet the requirements of breeding animals after the diet is autoclaved or irradiated, supplied by Speciality Feeds, Western Australia) and water. Age groups investigated (at treatment completion) were time mated pregnant females at E19 (350-400g body weight), postnatal pups at P4 and non-pregnant female adults (175-230g body weight). E19 was chosen because this is a stage of development when adequate volumes of blood and CSF can be obtained for analysis from fetal rats without pooling ( [Dziegielewska et al., 1981]) and individual pups can be injected intraperitoneally while still inside the uterine horn and kept viable for periods of time. P4 was chosen because its stage of brain development is similar to that of very prematurely born but viable human infants of 22–24 weeks gestation ( [Clancy et al., 2001]). Animal numbers were based on previous experience of such experiments and were the minimum number required to detect a significant difference between groups at P <0.05.
Drug doses. Drug doses were selected based on use in clinical practice ( [Australian Medicines Handbook, 2019]) and adjusted for body weight.
(§1) Experimental procedure. In acute drug experiments, a single dose was injected that included traces of [ ^3H]-labelled drug (20µCi adults, 2µCi newborns). In chronic experiments, doses of unlabelled drug were given twice daily (09.00 and 17.00h) for four days before a final injection on the 5 ^th day identical to acute experiments. In passive marker experiments, all dosing was acute and contained only the [ ^3H]- or [ ^14C]-labelled compound (20µCi adults, 2µCi newborns).
(§2) In all experiments involving postnatal animals, injections were intraperitoneal (i.p.). In pregnant animals for fetal drug entry studies, the final injection of the radiolabelled marker was given intravenously (i.v.), as the peritoneal cavity required opening prior to the sampling period to gain access to the fetuses. For passive markers (L-glucose, sucrose and glycerol), fetal animals were individually injected i.p. while still within the uterine horn. All experiments took place between 09.00 and 15.00h. All pregnancy studies were completed with a single treatment group on one day. Postnatal groups were conducted with a single treatment group on one day or with the chronic group completed prior to the acute group.
(§3) Sample collection. Samples were collected 30 minutes after the final injection. This duration was chosen partly to limit any potential metabolism of the drugs and markers used but also to allow enough time for i.p. injected markers to reach the blood stream and, from there, to access the brain parenchyma across brain barriers, as well as to limit the CSF sink effect that could influence drug levels ( [Bito et al., 1966]). Thirty minutes is also within the half-life of these drugs ( [Adedoyin et al., 1987]; [Harrison & Gibaldi, 1976]; Lin & Levy, 1963). The other reason a 30-minute duration was chosen is that in the case of exposed fetal rat pups, it is difficult to maintain them in a reasonable physiological state for long periods due to deterioration of placental perfusion. Therefore, for comparative purposes, all studies were conducted at the same time.
For adult and newborn (P4) experiments, animals were terminally anaesthetized using inhaled isofluorane (IsoFlo 100% w/w, Abbott Laboratories).

The conditions of series [2]: Sprague Dawley, rat, in vivo.
Series [3] can be described thus: Entry of "passive" markers into brain and CSF. Here is the method: as §1, §2, §3
For adult and newborn (P4) experiments, animals were terminally anaesthetized using inhaled isofluorane (IsoFlo 100% w/w, Abbott Laboratories). Blood samples were collected from the right cardiac ventricle, CSF from the cisterna magna (Habgood et al., 1992) and cortical segments of brain tissue dorsal to the ventricle of the frontal/parietal lobes, as previously described ( [Koehn et al., 2019]). Blood and CSF sampling from the P4 animals was terminal and would thus not have affected the physiological state of the animals during the experiment.
Sample preparation. Samples were processed immediately after collection. Blood was centrifuged at 7000rpm for five minutes and the plasma separated. CSF samples were examined microscopically for traces of red blood cells and discarded if contaminated (Habgood et al., 1992). In all experiments, the radioactivity in the injectate was also measured to confirm the uniformity of the injected material. All samples were weighed and transferred into scintillation vials. Soluene350 (0.5ml, PerkinElmer) was added to the brain samples. After being incubated at 36°C overnight to allow the tissue to solubilize, two drops of glacial acetic acid (Sigma) were added to neutralize the strongly alkaline Soluene350. All samples were then mixed with 5ml of scintillation fluid (Emulsifier-safe, PerkinElmer) before being transferred into the liquid scintillation counter (Tri-Carb 4910 TR, PerkinElmer) to count radioactivity disintegrations per minute (DPM) over five minutes each with luminescence correction on. Blank vials containing the same tissues without radioactivity were also counted alongside the samples to establish the level of background counts, which were always subtracted from the radioactivity counts of the corresponding experimental samples.
BrainorCSFtransfer=BrainorCSFDPM/μl/plasmaDPM/μl×100%

Setting [4] is: E19 fetuses, acute, 30 min - […] after administration.
Where [5] appears, read: E19 fetuses, chronic (twice daily over five days), 30 min - […] after final dose.
[6] abbreviates: P4, chronic i.p. (twice daily over five days), 30 min after final dose.
[7] abbreviates: adult, chronic i.p. (twice daily over five days), 30 min after final dose.
The mark [8] stands for this setting: passive marker, E19, 60-minute, separate experimentation.
Where [9] appears, read: passive marker, E19, 30 minutes after i.p. injection.
Where [10] appears, read: passive marker, P4, 30 minutes after i.p. injection.
Setting [11] is: passive marker, adults, 30 minutes after i.p. injection.

Consider `CC(=O)Nc1ccc(O)cc1` [Paracetamol], for which, in series [1] (E19, acute), the “transfer from maternal blood to fetal brain” value was determined as 28%. Also, the Brain radioactivity level in series [1] (setting [4]) was 39.6 DPM/µg; in series [1] (setting [5]), 146.1 DPM/µg; in series [1] (P4, acute i.p., 30 min), 117.5 DPM/µg; in series [1] (setting [6]), 84.4 DPM/µg; in series [1] (adult, acute i.p., 30 min), 27.3 DPM/µg; in series [1] (setting [7]), 17.6 DPM/µg. The CSF radioactivity level stood at 35.3 DPM/µl in series [1] (setting [4]); 119.0 DPM/µl in series [1] (setting [5]); 96.5 DPM/µl in series [1] (P4, acute i.p., 30 min); 71.0 DPM/µl in series [1] (setting [6]); 25.4 DPM/µl in series [1] (adult, acute i.p., 30 min); 14.9 DPM/µl in series [1] (setting [7]). Besides, the Plasma radioactivity level was 57.8 DPM/µl in series [1] (setting [4]); 140.5 DPM/µl in series [1] (setting [5]); 193.6 DPM/µl in series [1] (P4, acute i.p., 30 min); 166.8 DPM/µl in series [1] (setting [6]); 90.1 DPM/µl in series [1] (adult, acute i.p., 30 min); 83.3 DPM/µl in series [1] (setting [7]). Besides, the “transfer into maternal brain (brain/maternal blood)” value is recorded as 30% in series [1] (acute) and 21% in series [1] (chronic (five days of twice-daily dosing)).

With `OCC(O)CO` [Glycerol], the “Fetal/Maternal plasma concentration ratio, range” value in series [2] is listed as “(68.1 - 134.7) %”. Also, in series [3] (setting [8]), the CSF concentration ratio is on record as about 100% and the brain concentration ratio entry is given as “approximately 80%”. In addition, in series [3] (setting [9]), the Brain/Plasma Ratio is reported as 46.8% and the CSF/Plasma Ratio amounted to 46.8%. For the same compound, in series [3] (setting [10]), the Brain/Plasma Ratio is 82.2% and the CSF/Plasma Ratio was determined as 95%. In addition, in series [3] (setting [11]), the Brain/Plasma Ratio came out at 85.5% and the CSF/Plasma Ratio amounted to 103.9%.

For the compound `C[C@H]1O[C@@H](O[C@H]2[C@@H](O)C[C@H](O[C@H]3[C@@H](O)C[C@H](O[C@H]4CC[C@@]5(C)[C@H](CC[C@@H]6[C@@H]5C[C@@H](O)[C@]5(C)[C@@H](C7=CC(=O)OC7)CC[C@]65O)C4)O[C@@H]3C)O[C@@H]2C)C[C@H](O)[C@@H]1O` [Digoxin], in series [2], the “restriction of transfer by the placenta” value is reported as “about 60%”.

For `OC[C@H]1O[C@@](CO)(O[C@H]2O[C@H](CO)[C@@H](O)[C@H](O)[C@H]2O)[C@@H](O)[C@@H]1O` [sucrose, Sucrose], the CSF/Plasma Ratio result in series [3] (rat, in vivo) is given as “very low”. Further, the Brain/Plasma Ratio entry in series [3] (rat, in vivo, 0.5 h) is on record as “very low”.
